Structures can show the parent of a compound that is named as a salt.
Target: T1, RET (Homo sapiens, UniProt P07949)
T1 construct: purchased Upstate 14-570MG
Test: Inhibition of RET kinase activity, recombinant RET method (Kinase-Glo)
Type: biochemical
Settings: RET 2 μg/ml, poly-EY4 substrate, 20 μM ATP, two hours at 30° C.
Procedure: The inhibition of the kinase activity of the compounds of the invention is assessed by measuring their IC50 on RET.
where: • Y is the value of the luminescence • X is the logarithm of the concentration of the compound • Bottom is the minimum Y value • Top is the maximum Y value • LogIC50 is the value of X when Y is 50% from Top—Bottom.
The quantity of RET required is 2 μg/ml.
The following buffer is used for dilution of RET: 20 mM MOPS/NaOH pH7.0, 1 mM EDTA, 5% glycerol, 0.01% Brij35 (Sigma B4184), 0.1% 2-mercaptoethanol, 1 mg/ml BSA (Sigma A3059-10G).
The dilution of the compounds of the invention is distributed so as to obtain a scale of final concentrations between 10 nM and 30 μM.
After incubation of the reaction mixture for two hours at 30° C., the level of ATP that remains is assayed using the Kinase-Glo Luminescent Kinase Assay (Promega #V6712) according to the conditions recommended by the supplier. The luminescence induced is read in a plate reader (Envision-Perkin Elmer).

T1 sequence (P07949 29-1114): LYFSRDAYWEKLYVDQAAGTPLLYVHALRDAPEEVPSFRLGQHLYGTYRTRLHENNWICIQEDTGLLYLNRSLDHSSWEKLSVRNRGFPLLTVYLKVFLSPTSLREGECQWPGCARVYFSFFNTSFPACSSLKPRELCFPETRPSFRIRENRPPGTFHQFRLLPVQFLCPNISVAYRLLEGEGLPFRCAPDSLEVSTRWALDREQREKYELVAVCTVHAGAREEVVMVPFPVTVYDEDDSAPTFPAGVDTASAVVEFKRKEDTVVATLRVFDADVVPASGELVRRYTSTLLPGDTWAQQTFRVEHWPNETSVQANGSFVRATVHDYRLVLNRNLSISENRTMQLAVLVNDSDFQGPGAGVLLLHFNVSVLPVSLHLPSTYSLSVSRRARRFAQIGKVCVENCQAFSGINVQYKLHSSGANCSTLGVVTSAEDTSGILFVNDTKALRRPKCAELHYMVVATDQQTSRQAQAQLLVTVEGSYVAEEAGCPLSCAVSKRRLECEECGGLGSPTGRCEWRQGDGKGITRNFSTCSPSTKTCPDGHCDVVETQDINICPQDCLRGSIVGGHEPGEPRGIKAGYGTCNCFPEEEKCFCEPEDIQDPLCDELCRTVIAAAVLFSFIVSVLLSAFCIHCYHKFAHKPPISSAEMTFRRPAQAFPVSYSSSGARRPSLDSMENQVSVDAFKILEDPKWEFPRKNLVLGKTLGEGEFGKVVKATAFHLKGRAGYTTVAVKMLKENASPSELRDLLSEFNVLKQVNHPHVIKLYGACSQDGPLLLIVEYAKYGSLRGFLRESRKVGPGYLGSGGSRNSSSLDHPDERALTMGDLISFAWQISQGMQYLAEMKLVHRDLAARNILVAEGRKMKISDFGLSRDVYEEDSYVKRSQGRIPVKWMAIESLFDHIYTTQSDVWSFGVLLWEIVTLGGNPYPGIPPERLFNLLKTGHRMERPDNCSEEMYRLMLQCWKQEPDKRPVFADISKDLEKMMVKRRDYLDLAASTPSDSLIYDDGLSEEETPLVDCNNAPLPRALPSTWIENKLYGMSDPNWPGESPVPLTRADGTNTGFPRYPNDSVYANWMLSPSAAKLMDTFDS

| Structure (SMILES) | IC50 [nM] |
| --- | --- |
| CCOC(=O)c1c[nH]c2c(=O)[nH]c3ccc(NS(=O)(=O)c4ccc5ccccc5c4)cc3c12 [Compound 54, 8-(Naphthalene-2-sulfonylamino)-4-oxo-4,5-dihydro-3H-pyrrolo[2,3-c]quinoline-1-ethyl carboxylate] | 10000 to 100000 |
| O=C(NCCc1c[nH]c2ccccc12)c1c[nH]c2c(=O)[nH]c3ccccc3c12 [Compound 84, N-[2-(1H-Indol-3-yl)-ethyl]-4-oxo-4,5-dihydro-3H-pyrrolo[2,3-c]quinoline-1-carboxamide] | 10000 to 100000 |
| CCOC(=O)c1c[nH]c2c(=O)[nH]c3ccc(NS(=O)(=O)c4cccc(OC)c4)cc3c12 [Compound 51, 8-(3-Methoxy-benzenesulfonylamino)-4-oxo-4,5-dihydro-3H-pyrrolo[2,3-c]quinoline-1-ethyl carboxylate] | 1000 to 10000 |
| CCCOC(=O)c1c[nH]c2c(=O)[nH]c3ccc(S(=O)(=O)N(CC)[C@H]4CCNC4)cc3c12 [Compound 160, (S)-8-(Ethyl-pyrrolidin-3-yl-sulfamoyl)-4-oxo-4,5-dihydro-3H-pyrrolo[2,3-c]quinoline-1-propyl carboxylate hydrochloride] | < 100 |
| CCOC(=O)c1c[nH]c2c(=O)[nH]c3ccc(-c4cccc5cccnc45)cc3c12 [Compound 250, 4-Oxo-8-quinolin-8-yl-4,5-dihydro-3H-pyrrolo[2,3-c]quinoline-1-ethyl carboxylate] | 1000 to 10000 |
| CCCN(C)C(=O)c1c[nH]c2c(=O)[nH]c3ccc(S(=O)(=O)N(C)C)cc3c12 [Compound 110, N-Methyl-N-propyl-8-dimethylsulfamoyl-4-oxo-4,5-dihydro-3H-pyrrolo[2,3-c]quinoline-1-carboxamide] | 10000 to 100000 |
| CN(c1ccc(F)cc1)S(=O)(=O)c1ccc2[nH]c(=O)c3[nH]cc(C(=O)OCCN)c3c2c1 [Compound 105, 8-[(4-Fluorophenyl)-methyl-sulfamoyl]-4-oxo-4,5-dihydro-3H-pyrrolo[2,3-c]quinoline-1-2-aminoethyl trifluoroacetate carboxylate] | 10000 to 100000 |
| O=C(c1ccccc1)c1c[nH]c2c(=O)[nH]c3ccccc3c12 [Compound 76, 1-Benzoyl-3,5-dihydro-pyrrolo[2,3-c]quinolin-4-one] | 1000 to 10000 |
| CCOC(=O)c1c[nH]c2c(=O)[nH]c3ccc(C#Cc4ccccc4)cc3c12 [Compound 201, 4-Oxo-8-phenylethynyl-4,5-dihydro-3H-pyrrolo[2,3-c]quinoline-1-ethyl carboxylate] | 1000 to 10000 |
| CCOC(=O)c1c[nH]c2c(=O)[nH]c3cc(OC)ccc3c12 [Compound 213, 7-Methoxy-4-oxo-4,5-dihydro-3H-pyrrolo[2,3-c]quinoline-1-ethyl carboxylate] | 1000 to 10000 |
| CCOC(=O)c1c[nH]c2c(=O)[nH]c3ccc(S(=O)(=O)Nc4cccnc4)cc3c12 [Compound 23, 4-Oxo-8-(pyridin-3-ylsulfamoyl)-4,5-dihydro-3H-pyrrolo[2,3-c]quinoline-1-ethyl carboxylate] | 100 to 1000 |
| CCOC(=O)c1c[nH]c2c(=O)[nH]c3ccc(S(=O)(=O)Nc4cccc(C)c4)cc3c12 [Compound 5, 4-Oxo-8-m-tolylsulfamoyl-4,5-dihydro-3H-pyrrolo[2,3-c]quinoline-1-ethyl carboxylate] | 100 to 1000 |
| CCOC(=O)c1c[nH]c2c(=O)[nH]c3ccc(-c4csc(Nc5c(Cl)cccc5Cl)n4)cc3c12 [Compound 274, 8-[2-(2,6-Dichlorophenylamino)-thiazol-4-yl]-4-oxo-4,5-dihydro-3H-pyrrolo[2,3-c]quinoline-1-ethyl carboxylate] | 10000 to 100000 |
| CCOC(=O)c1c[nH]c2c(=O)[nH]c3ccc(Sc4ccc(NC(C)=O)cc4)cc3c12 [Compound 223, 8-(4-Acetylaminophenylsulfanyl)-4-oxo-4,5-dihydro-3H-pyrrolo[2,3-c]quinoline-1-ethyl carboxylate] | 100 to 1000 |
| CCOC(=O)c1c[nH]c2c(=O)[nH]c3ccc(S(=O)(=O)N(C)Cc4ccccc4)cc3c12 [Compound 24, 8-(Benzyl-methyl-sulfamoyl)-4-oxo-4,5-dihydro-3H-pyrrolo[2,3-c]quinoline-1-ethyl carboxylate] | 100 to 1000 |
| CCOC(=O)c1c[nH]c2c(=O)[nH]c3ccc(Sc4cccc(NC(C)=O)c4)cc3c12 [Compound 225, 8-(3-Acetylaminophenylsulfanyl)-4-oxo-4,5-dihydro-3H-pyrrolo[2,3-c]quinoline-1-ethyl carboxylate] | 100 to 1000 |
| CCCOC(=O)c1c[nH]c2c(=O)[nH]c3ccc(S(=O)(=O)N(C)CC(=O)O)cc3c12 [Compound 182, 8-(Carboxymethyl-methyl-sulfamoyl)-4-oxo-4,5-dihydro-3H-pyrrolo[2,3-c]quinoline-1-propyl carboxylate] | 1000 to 10000 |

Other lines, results leading:

| IC50 [nM] | Structure (SMILES) |
| --- | --- |
| 100 to 1000 | CCOC(=O)c1c[nH]c2c(=O)[nH]c3ccc(NS(=O)(=O)c4ccc(C)cc4)cc3c12 [Compound 47, 4-Oxo-8-(4-toluenesulfonylamino)-4,5-dihydro-3H-pyrrolo[2,3-c]quinoline-1-ethyl carboxylate] |
| 100 to 1000 | CCCOC(=O)c1c[nH]c2c(=O)[nH]c3ccc(S(=O)(=O)N(C)CCN(CC)CC)cc3c12 [Compound 138, 8-[(2-Diethylamino-ethyl)-methyl-sulfamoyl]-4-oxo-4,5-dihydro-3H-pyrrolo[2,3-c]quinoline-1-propyl carboxylate] |
| < 100 | CCOC(=O)c1c[nH]c2c(=O)[nH]c3ccc(S(=O)(=O)Nc4ccc(O)cc4)cc3c12 [Compound 98, 8-(4-Hydroxy-phenylsulfamoyl)-4-oxo-4,5-dihydro-3H-pyrrolo[2,3-c]quinoline-1-ethyl carboxylate] |
| < 100 | CCOC(=O)c1c[nH]c2c(=O)[nH]c3ccc(S(=O)(=O)Nc4ccc(F)c(F)c4)cc3c12 [Compound 18, 8-(3,4-Difluorophenylsulfamoyl)-4-oxo-4,5-dihydro-3H-pyrrolo[2,3-c]quinoline-1-ethyl carboxylate] |
| 100 to 1000 | CCCOC(=O)c1c[nH]c2c(=O)[nH]c3cc(F)c(S(=O)(=O)N(C)C)cc3c12 [Compound 186, 8-Dimethylsulfamoyl-7-fluoro-4-oxo-4,5-dihydro-3H-pyrrolo[2,3-c]quinoline-1-propyl carboxylate] |
| < 100 | CCCOC(=O)c1c[nH]c2c(=O)[nH]c3ccc(S(=O)(=O)N(C)C4CCOCC4)cc3c12 [Compound 133, 8-[Methyl-(tetrahydro-pyran-4-yl)-sulfamoyl]-4-oxo-4,5-dihydro-3H-pyrrolo[2,3-c]quinoline-1-propyl carboxylate] |
| 100 to 1000 | CCCOC(=O)c1c[nH]c2c(=O)[nH]c3cc(F)c(S(=O)(=O)N(C)C4CC4)cc3c12 [Compound 187, 8-(Cyclopropyl-methyl-sulfamoyl)-7-fluoro-4-oxo-4,5-dihydro-3H-pyrrolo[2,3-c]quinoline-1-propyl carboxylate] |
| 100 to 1000 | CCCOC(=O)c1c[nH]c2c(=O)[nH]c3ccc(S(=O)(=O)N(C)CCC#N)cc3c12 [Compound 126, 8-[(2-Cyano-ethyl)-methyl-sulfamoyl]-4-oxo-4,5-dihydro-3H-pyrrolo[2,3-c]quinoline-1-propyl carboxylate] |
| 100 to 1000 | CCOC(=O)c1c[nH]c2c(=O)[nH]c3ccc(Sc4cccc(N)c4)cc3c12 [Compound 224, 8-(3-Aminophenylsulfanyl)-4-oxo-4,5-dihydro-3H-pyrrolo[2,3-c]quinoline-1-ethyl carboxylate] |
| 100 to 1000 | CCCOC(=O)c1c[nH]c2c(=O)[nH]c3ccc(S(=O)(=O)N(C[C@H]4CCCN4C)C4CC4)cc3c12 [Compound 146, (R)-8-[Cyclopropyl-(1-methyl-pyrrolidin-2-ylmethyl)-sulfamoyl]-4-oxo-4,5-dihydro-3H-pyrrolo[2,3-c]quinoline-1-propyl carboxylate] |
| 100 to 1000 | CCOC(=O)c1c[nH]c2c(=O)[nH]c3ccc(-c4cccc(C#N)c4)cc3c12 [Compound 239, 8-(3-Cyano-phenyl)-4-oxo-4,5-dihydro-3H-pyrrolo[2,3-c]quinoline-1-ethyl carboxylate] |
| 100 to 1000 | CCOC(=O)c1c[nH]c2c(=O)[nH]c3ccc(C(=O)/C=C/N(C)C)cc3c12 [Compound 217, 8-(3-Dimethylamino-acryloyl)-4-oxo-4,5-dihydro-3H-pyrrolo[2,3-c]quinoline-1-ethyl carboxylate] |
| 100 to 1000 | CCOC(=O)c1c[nH]c2c(=O)[nH]c3ccc(-c4ccc5c(c4)OCCO5)cc3c12 [Compound 248, 8-(2,3-Dihydro-benzo[1,4]dioxin-6-yl)-4-oxo-4,5-dihydro-3H-pyrrolo[2,3-c]quinoline-1-ethyl carboxylate] |
| 100 to 1000 | CCOC(=O)c1c[nH]c2c(=O)[nH]c3ccc(S(=O)(=O)NC4CCCCC4)cc3c12 [Compound 30, 8-Cyclohexylsulfamoyl-4-oxo-4,5-dihydro-3H-pyrrolo[2,3-c]quinoline-1-ethyl carboxylate] |
| < 100 | CCOC(=O)c1c[nH]c2c(=O)[nH]c3ccc(S(=O)(=O)Cc4ccccc4)cc3c12 [Compound 35, 4-Oxo-8-phenylmethanesulfonyl-4,5-dihydro-3H-pyrrolo[2,3-c]quinoline-1-ethyl carboxylate] |
| < 100 | CCOC(=O)c1c[nH]c2c(=O)[nH]c3ccc(S(=O)(=O)Nc4ccc(F)cc4C)cc3c12 [Compound 17, 8-(4-Fluoro-2-methyl-phenylsulfamoyl)-4-oxo-4,5-dihydro-3H-pyrrolo[2,3-c]quinoline-1-ethyl carboxylate] |

— patent US8426437B2, “Pyrroloquinoline derivatives and their use as protein kinases inhibitors” (Pierre Fabre Medicament, priority 2005, dated 2013)
